Tested on: SKMEL-19
Assay: MTT cytotoxicity assay, SKMEL-19 melanoma cells
Type: cell-based, human
Conditions: Homo sapiens, SK-MEL19, 72 h, IC50 with 95% confidence interval, triplicate, 72 h incubation
Method: (§1) In vitro anticancer activity of compounds 2, 3 and 4a–r was evaluated against three human cancer cell lines in comparison to doxorubicin by using MTT assay.
(§2) Compounds (0.312–20 μM) were tested for cytotoxic activity against three cancer cell lines: ACP-03 (gastric), SKMEL-19 (melanoma) and HCT-116 (colon). All cell lines were maintained in DMEM medium supplemented with 10% fetal bovine serum, 2 mM glutamine, 100 U/mL penicillin, and […] streptomycin at 37 °C with 5% CO2. Each compound was dissolved in DMSO and diluted with water to obtain a concentration of 20 μM. They were incubated with the cells for 72 h. The negative control received the same amount of DMSO (0.005% in the highest concentration). Doxorrubicin was used as a positive control. The cell viability was determined by reduction of the yellow dye 3-(4,5-dimethyl-2-thiazol)-2,5-diphenyl-2H-tetrazolium bromide (MTT) to a blue formazan product after 48 h as described by Mosmann.

Structure (SMILES) | IC50 [µM]
O=c1oc2cc(O)c(/N=C/c3cc(Br)ccc3O)cc2s1 [Compound 4p, (E)-5-(5-Bromo-2-hydroxybenzylideneamino)-6-hydroxybenzo[d][1,3]oxathiol-2-one] | > 10
O=c1oc2cc(O)c(/N=C/c3cccc([N+](=O)[O-])c3)cc2s1 [Compound 4c, (E)-6-Hydroxy-5-(3-nitrobenzylideneamino)benzo[d][1,3]oxathiol-2-one] | > 10
O=c1oc2cc(O)c(/N=C/c3cc([N+](=O)[O-])ccc3O)cc2s1 [Compound 4o, (E)-6-Hydroxy-5-(2-hydroxy-5-nitrobenzylideneamino)benzo[d][1,3]oxathiol-2-one] | < 5
O=c1oc2cc(O)c(/N=C/c3cccc(O)c3O)cc2s1 [Compound 4l, (E)-5-(2,3-Dihydroxybenzylideneamino)-6-hydroxybenzo[d][1,3]oxathiol-2-one] | > 10
O=c1oc2cc(O)c(/N=C/c3ccccc3)cc2s1 [Compound 4h, (E)-5-(Benzylideneamino)-6-hydroxybenzo[d][1,3]oxathiol-2-one] | > 10
O=c1oc2cc(O)c(/N=C/c3cccc(Br)c3)cc2s1 [Compound 4e, (E)-5-(3-Bromobenzylideneamino)-6-hydroxybenzo[d][1,3]oxathiol-2-one] | > 10
Nc1cc2sc(=O)oc2cc1O [Compound 3, 5-Amino-6-hydroxybenzo[d][1,3]oxathiol-2-one] | > 10
COc1ccc(/C=N/c2cc3sc(=O)oc3cc2O)cc1 [Compound 4j, (E)-6-Hydroxy-5-(4-methoxybenzylideneamino)benzo[d][1,3]oxathiol-2-one] | > 10
O=c1oc2cc(O)c(/N=C/c3ccc(O)cc3O)cc2s1 [Compound 4m, (E)-5-(2,4-Dihydroxybenzylideneamino)-6-hydroxybenzo[d][1,3]oxathiol-2-one] | 9.4
O=c1oc2cc(O)c(/N=C/c3ccc(Br)cc3)cc2s1 [Compound 4d, (E)-5-(4-Bromobenzylideneamino)-6-hydroxybenzo[d][1,3]oxathiol-2-one] | > 10
O=c1oc2cc(O)c(/N=C/c3ccc(-c4ccccn4)cc3)cc2s1 [Compound 4q, (E)-6-Hydroxy-5-(4-(pyridin-2-yl)benzylideneamino)benzo[d][1,3]oxathiol-2-one] | > 10

Same assay, conditions: IC50 with 95% confidence interval, triplicate, 72 h incubation

Structure (SMILES) | IC50 [µM]
O=c1oc2cc(O)c(/N=C/c3cc([N+](=O)[O-])ccc3O)cc2s1 [Compound 4o, (E)-6-Hydroxy-5-(2-hydroxy-5-nitrobenzylideneamino)benzo[d][1,3]oxathiol-2-one] | 2.8

Tested on: HCT-116
Assay: MTT cytotoxicity assay, HCT-116 colon cancer cells
Type: cell-based
Conditions: Homo sapiens, IC50 with 95% confidence interval, triplicate, 72 h incubation
Method: as §1, §2

Structure (SMILES) | IC50 [µM]
O=c1oc2cc(O)c(/N=C/c3cc(Br)ccc3O)cc2s1 [Compound 4p, (E)-5-(5-Bromo-2-hydroxybenzylideneamino)-6-hydroxybenzo[d][1,3]oxathiol-2-one] | > 10
O=c1oc2cc(O)c(/N=C/c3cccc([N+](=O)[O-])c3)cc2s1 [Compound 4c, (E)-6-Hydroxy-5-(3-nitrobenzylideneamino)benzo[d][1,3]oxathiol-2-one] | > 10
O=c1oc2cc(O)c(/N=C/c3cc([N+](=O)[O-])ccc3O)cc2s1 [Compound 4o, (E)-6-Hydroxy-5-(2-hydroxy-5-nitrobenzylideneamino)benzo[d][1,3]oxathiol-2-one] | > 10
O=c1oc2cc(O)c(/N=C/c3cccc(O)c3O)cc2s1 [Compound 4l, (E)-5-(2,3-Dihydroxybenzylideneamino)-6-hydroxybenzo[d][1,3]oxathiol-2-one] | > 10
O=c1oc2cc(O)c(/N=C/c3ccccc3)cc2s1 [Compound 4h, (E)-5-(Benzylideneamino)-6-hydroxybenzo[d][1,3]oxathiol-2-one] | > 10
O=c1oc2cc(O)c(/N=C/c3cccc(Br)c3)cc2s1 [Compound 4e, (E)-5-(3-Bromobenzylideneamino)-6-hydroxybenzo[d][1,3]oxathiol-2-one] | > 10
Nc1cc2sc(=O)oc2cc1O [Compound 3, 5-Amino-6-hydroxybenzo[d][1,3]oxathiol-2-one] | > 10
COc1ccc(/C=N/c2cc3sc(=O)oc3cc2O)cc1 [Compound 4j, (E)-6-Hydroxy-5-(4-methoxybenzylideneamino)benzo[d][1,3]oxathiol-2-one] | > 10
O=c1oc2cc(O)c(/N=C/c3ccc(O)cc3O)cc2s1 [Compound 4m, (E)-5-(2,4-Dihydroxybenzylideneamino)-6-hydroxybenzo[d][1,3]oxathiol-2-one] | > 10
O=c1oc2cc(O)c(/N=C/c3ccc(Br)cc3)cc2s1 [Compound 4d, (E)-5-(4-Bromobenzylideneamino)-6-hydroxybenzo[d][1,3]oxathiol-2-one] | > 10
O=c1oc2cc(O)c(/N=C/c3ccc(-c4ccccn4)cc3)cc2s1 [Compound 4q, (E)-6-Hydroxy-5-(4-(pyridin-2-yl)benzylideneamino)benzo[d][1,3]oxathiol-2-one] | > 10

Tested on: not listed separately
Assay: Cell membrane disruption (hemolysis) of mouse erythrocytes
Type: cell-based
Conditions: mouse erythrocytes (2% suspension), 2% mouse erythrocyte suspension, room temperature, tested 1.5 to 200 μg/mL, lysis 50% of Triton X-100
Method: The mechanical stability of red blood cells is a good parameter for in vitro screening of unspecific cytotoxicity, since the membrane of erythrocyte can suffer significant changes in its structural properties. In order to verify whether the cytotoxicity of the compounds was linked to the membrane disruption, the ability to induce lysis of mouse erythrocytes was investigated, and no membrane damage was found for all tested compounds (EC50 > 200 μg/mL).
The test was performed in 96-well plates using a 2% mouse erythrocyte suspension in 0.85% NaCl containing 10 mM CaCl2. The compounds diluted as mentioned above were tested at concentrations ranging from 1.5 to 200 μg/mL. After incubation at room temperature for 30 min and centrifugation, the supernatant was removed and the liberated hemoglobin was measured spectrophotometrically at 540 nm. DMSO was used as a negative control and Triton X-100 (1%) was used as positive control. EC50 is the calculated effective dose that induced lysis on 50% that of the Triton X-100 [37].

Structure (SMILES) | EC50 at 30 min [µg/mL]
O=c1oc2cc(O)c(/N=C/c3cc(Br)ccc3O)cc2s1 [Compound 4p, (E)-5-(5-Bromo-2-hydroxybenzylideneamino)-6-hydroxybenzo[d][1,3]oxathiol-2-one] | > 200
O=c1oc2cc(O)c(/N=C/c3cccc([N+](=O)[O-])c3)cc2s1 [Compound 4c, (E)-6-Hydroxy-5-(3-nitrobenzylideneamino)benzo[d][1,3]oxathiol-2-one] | > 200
O=c1oc2cc(O)c(/N=C/c3cc([N+](=O)[O-])ccc3O)cc2s1 [Compound 4o, (E)-6-Hydroxy-5-(2-hydroxy-5-nitrobenzylideneamino)benzo[d][1,3]oxathiol-2-one] | > 200
O=c1oc2cc(O)c(/N=C/c3cccc(O)c3O)cc2s1 [Compound 4l, (E)-5-(2,3-Dihydroxybenzylideneamino)-6-hydroxybenzo[d][1,3]oxathiol-2-one] | > 200
O=c1oc2cc(O)c(/N=C/c3ccccc3)cc2s1 [Compound 4h, (E)-5-(Benzylideneamino)-6-hydroxybenzo[d][1,3]oxathiol-2-one] | > 200
O=c1oc2cc(O)c(/N=C/c3cccc(Br)c3)cc2s1 [Compound 4e, (E)-5-(3-Bromobenzylideneamino)-6-hydroxybenzo[d][1,3]oxathiol-2-one] | > 200
Nc1cc2sc(=O)oc2cc1O [Compound 3, 5-Amino-6-hydroxybenzo[d][1,3]oxathiol-2-one] | > 200
COc1ccc(/C=N/c2cc3sc(=O)oc3cc2O)cc1 [Compound 4j, (E)-6-Hydroxy-5-(4-methoxybenzylideneamino)benzo[d][1,3]oxathiol-2-one] | > 200
O=c1oc2cc(O)c(/N=C/c3ccc(O)cc3O)cc2s1 [Compound 4m, (E)-5-(2,4-Dihydroxybenzylideneamino)-6-hydroxybenzo[d][1,3]oxathiol-2-one] | > 200
O=c1oc2cc(O)c(/N=C/c3ccc(Br)cc3)cc2s1 [Compound 4d, (E)-5-(4-Bromobenzylideneamino)-6-hydroxybenzo[d][1,3]oxathiol-2-one] | > 200
O=c1oc2cc(O)c(/N=C/c3ccc(-c4ccccn4)cc3)cc2s1 [Compound 4q, (E)-6-Hydroxy-5-(4-(pyridin-2-yl)benzylideneamino)benzo[d][1,3]oxathiol-2-one] | > 200

Tested on: not given
Assay: not given
Conditions: not given

Structure (SMILES) | melting point
O=c1oc2cc(O)c(/N=C/c3cc(Br)ccc3O)cc2s1 [Compound 4p, (E)-5-(5-Bromo-2-hydroxybenzylideneamino)-6-hydroxybenzo[d][1,3]oxathiol-2-one] | 250 to 252 °C
O=c1oc2cc(O)c(/N=C/c3cccc([N+](=O)[O-])c3)cc2s1 [Compound 4c, (E)-6-Hydroxy-5-(3-nitrobenzylideneamino)benzo[d][1,3]oxathiol-2-one] | 220 to 222 °C
O=c1oc2cc(O)c(/N=C/c3cc([N+](=O)[O-])ccc3O)cc2s1 [Compound 4o, (E)-6-Hydroxy-5-(2-hydroxy-5-nitrobenzylideneamino)benzo[d][1,3]oxathiol-2-one] | 293 to 294 °C
O=c1oc2cc(O)c(/N=C/c3cccc(O)c3O)cc2s1 [Compound 4l, (E)-5-(2,3-Dihydroxybenzylideneamino)-6-hydroxybenzo[d][1,3]oxathiol-2-one] | 244 to 246 °C
O=c1oc2cc(O)c(/N=C/c3ccccc3)cc2s1 [Compound 4h, (E)-5-(Benzylideneamino)-6-hydroxybenzo[d][1,3]oxathiol-2-one] | 232 to 233 °C
O=c1oc2cc(O)c(/N=C/c3cccc(Br)c3)cc2s1 [Compound 4e, (E)-5-(3-Bromobenzylideneamino)-6-hydroxybenzo[d][1,3]oxathiol-2-one] | 179 to 180 °C
Nc1cc2sc(=O)oc2cc1O [Compound 3, 5-Amino-6-hydroxybenzo[d][1,3]oxathiol-2-one] | 194 to 195 °C
COc1ccc(/C=N/c2cc3sc(=O)oc3cc2O)cc1 [Compound 4j, (E)-6-Hydroxy-5-(4-methoxybenzylideneamino)benzo[d][1,3]oxathiol-2-one] | 177 to 178 °C
O=c1oc2cc(O)c(/N=C/c3ccc(O)cc3O)cc2s1 [Compound 4m, (E)-5-(2,4-Dihydroxybenzylideneamino)-6-hydroxybenzo[d][1,3]oxathiol-2-one] | 284 to 285 °C (dec.)
O=c1oc2cc(O)c(/N=C/c3ccc(Br)cc3)cc2s1 [Compound 4d, (E)-5-(4-Bromobenzylideneamino)-6-hydroxybenzo[d][1,3]oxathiol-2-one] | 211 to 213 °C
O=c1oc2cc(O)c(/N=C/c3ccc(-c4ccccn4)cc3)cc2s1 [Compound 4q, (E)-6-Hydroxy-5-(4-(pyridin-2-yl)benzylideneamino)benzo[d][1,3]oxathiol-2-one] | 201 to 203 °C

Tested on: ACP-03
Assay: MTT cytotoxicity assay, ACP-03 gastric cancer cells
Type: cell-based, human
Conditions: Homo sapiens, 72 h, IC50 with 95% confidence interval, triplicate, 72 h incubation
Method: as §1, §2

Structure (SMILES) | IC50 [µM]
O=c1oc2cc(O)c(/N=C/c3cc(Br)ccc3O)cc2s1 [Compound 4p, (E)-5-(5-Bromo-2-hydroxybenzylideneamino)-6-hydroxybenzo[d][1,3]oxathiol-2-one] | > 10
O=c1oc2cc(O)c(/N=C/c3cccc([N+](=O)[O-])c3)cc2s1 [Compound 4c, (E)-6-Hydroxy-5-(3-nitrobenzylideneamino)benzo[d][1,3]oxathiol-2-one] | > 10
O=c1oc2cc(O)c(/N=C/c3cc([N+](=O)[O-])ccc3O)cc2s1 [Compound 4o, (E)-6-Hydroxy-5-(2-hydroxy-5-nitrobenzylideneamino)benzo[d][1,3]oxathiol-2-one] | > 10
O=c1oc2cc(O)c(/N=C/c3cccc(O)c3O)cc2s1 [Compound 4l, (E)-5-(2,3-Dihydroxybenzylideneamino)-6-hydroxybenzo[d][1,3]oxathiol-2-one] | > 10
O=c1oc2cc(O)c(/N=C/c3ccccc3)cc2s1 [Compound 4h, (E)-5-(Benzylideneamino)-6-hydroxybenzo[d][1,3]oxathiol-2-one] | > 10
O=c1oc2cc(O)c(/N=C/c3cccc(Br)c3)cc2s1 [Compound 4e, (E)-5-(3-Bromobenzylideneamino)-6-hydroxybenzo[d][1,3]oxathiol-2-one] | > 10
Nc1cc2sc(=O)oc2cc1O [Compound 3, 5-Amino-6-hydroxybenzo[d][1,3]oxathiol-2-one] | > 10
COc1ccc(/C=N/c2cc3sc(=O)oc3cc2O)cc1 [Compound 4j, (E)-6-Hydroxy-5-(4-methoxybenzylideneamino)benzo[d][1,3]oxathiol-2-one] | > 10
O=c1oc2cc(O)c(/N=C/c3ccc(O)cc3O)cc2s1 [Compound 4m, (E)-5-(2,4-Dihydroxybenzylideneamino)-6-hydroxybenzo[d][1,3]oxathiol-2-one] | > 10
O=c1oc2cc(O)c(/N=C/c3ccc(Br)cc3)cc2s1 [Compound 4d, (E)-5-(4-Bromobenzylideneamino)-6-hydroxybenzo[d][1,3]oxathiol-2-one] | > 10
O=c1oc2cc(O)c(/N=C/c3ccc(-c4ccccn4)cc3)cc2s1 [Compound 4q, (E)-6-Hydroxy-5-(4-(pyridin-2-yl)benzylideneamino)benzo[d][1,3]oxathiol-2-one] | > 10

Source: paper PMC6272564, “Synthesis and Biological Evaluation of Novel 6-Hydroxy-benzo[d][1,3]oxathiol-2-one Schiff Bases as Potential Anticancer Agents” (Molecules, 2015)
